Laboratory results reported in patent EP4729061A1, “USE OF AKT INHIBITOR IN PREPARATION OF DRUG FOR PREVENTING OR TREATING BREAST CANCER” (Nanjing Chia Tai Tianqing Pharmaceutical Co., Ltd., priority 2023, dated 2024).
Read-outs that look alike come from different tables or passages of the source.

Tests used:
BT-474 Cells = assay: Cell proliferation inhibition, CTG (CelltiterGlo) method, alone or combined with fulvestrant; assay type: cell-based; settings: compound alone; for IC50: Homo sapiens, BT-474, 168 h, 7 days; for Maximum Inhibition Rate on BT-474 Cells: maximum value fitted by GraphPad Prism 8
Protocol: (§1) a). BT-474 cells were cultured in Hybri-Care medium supplemented with 1% antibiotics and 10% FBS, and incubated in the condition of 37°C with 5% CO2; b). MCF-7 cells were cultured in EMEM medium supplemented with 1% antibiotics, 0.01 mg/mL insulin, and 10% FBS, and incubated in the condition of 37°C with 5% CO2; c). ZR-75-1 cells were cultured in RPMI-1640 medium supplemented with 1% antibiotics and 10% FBS, and incubated in the condition of 37°C with 5% CO2; d). T47D cells were cultured in RPMI-1640 medium supplemented with 1% antibiotics, 0.2 U/mL insulin, and 10% FBS, and incubated in the condition of 37°C with 5% CO2; e) CAMA-1 cells were cultured in EMEM medium supplemented with 1% antibiotics and 10% FBS, and incubated in the condition of 37°C with 5% CO2.
(§2) a). Cells were routinely cultured until reaching 80%-90% confluence and when the required cell number was reached, they were harvested; b). Resuspended in the corresponding medium, counted, and prepared into a cell suspension with appropriate density; c). The cell suspension was added to a 384-well plate at 40 µL per well. Table 1. Plating densities of different cell lines
(§3) d). The cells were cultured overnight in an incubator at 37°C with 5% CO2 .
(§4) a). The compound of Formula (A) was serially diluted 3-fold for 10 concentrations starting from a stock solution of 60 mM (using the monofumarate dihydrate of the compound of Formula (A), with the concentration calculated based on the free base of the compound of Formula (A); the compound of Formula (A) or salt thereof was prepared with reference to the preparation method disclosed in WO2022017448A1); b). Fulvestrant was diluted from 10 mM to 2 mM with DMSO, then serially diluted 3-fold for 10 concentrations; c). Fulvestrant was diluted from 2 mM to 0.2 mM with DMSO, then serially diluted 3-fold for 10 concentrations; d). Fulvestrant was diluted from 0.2 mM to 2 µM with DMSO; e). Fulvestrant was diluted from 2 µM to 0.8 µM with DMSO; f). Fulvestrant was diluted from 2 µM to 0.3 µM with DMSO; g) Fulvestrant was diluted from 0.8 µM to 0.08 µM with DMSO; h). The final concentration of DMSO was 0.1%; i). Cells supplemented with DMSO served as control wells for high reading values; j). Cell-free medium served as control wells for low reading values.
(§5) 24 Hours after BT474 and ZR-75-1 cells were plated, the compound was administered alone. For the compound of Formula (A): 20 nL of the compound prepared in step 2.3 a) + 20 nL of DMSO were added. For the compound fulvestrant: 20 nL of the compound prepared in step 2.3 b) + 20 nL of DMSO were added.
(§6) 24 Hours after BT474 and ZR-75-1 cells were plated, the compound of Formula (A) was administered in combination with fulvestrant: 20 nL of the compound prepared in step 2.3 a) + 20 nL of the compounds prepared in step 2.3 b) and d).
(§7) Fulvestrant for point-to-point combination (nM): 1000, 333, 111, 37, 12.3, 4.1, 1.37, 0.46, 0.15, 0.05, which are respectively combined with the gradient concentrations of the compound of Formula (A); Fulvestrant for single-concentration combination (nM): 1000, 1, which are respectively combined with the gradient concentrations of the compound of Formula (A).
(§8) The compound of Formula (A) (nM): 30000, 10000, 3333, 1111, 370, 123, 41.2, 13.7, 4.57, 1.52; • Fulvestrant for point-to-point combination (nM): 100, 33.3, 11.1, 3.7, 1.23, 0.41, 0.14, 0.046, 0.015, 0.005, which are respectively combined with the gradient concentrations of the compound of Formula (A); • Fulvestrant for single-concentration combination (nM): 1.2, 0.14, which are respectively combined with the gradient concentrations of the compound of Formula (A). d). The cell culture plates were centrifuged at 1000 rpm for 1 min, then placed in an incubator at 37°C with 5% CO2 for 7 days.
(§9) a). 40 µL of CTG reagent (CelltiterGlo kit) was added to each well, placed on a rapid shaker for 2 minutes of oscillation, centrifuged at 1000 rpm for 1 min, and then left at room temperature in the dark for 30 minutes; b). […]

ZR-75-1 Cells = assay: as above; assay type: cell-based; settings: compound alone; for IC50: Homo sapiens, ZR-75-1, 168 h, 7 days; for Maximum Inhibition Rate on ZR-75-1 Cells: maximum value fitted by GraphPad Prism 8
Protocol: as §1, §2, §3, §4, §5, §6, §7, §8, §9

T47D Cells = assay: as above; assay type: cell-based; settings: compound alone; for IC50: Homo sapiens, T47D, 168 h, 7 days; for Maximum Inhibition Rate on T47D Cells: maximum value fitted by GraphPad Prism 8
Protocol: as §1, §2, §3, §4
24 Hours after MCF-7, T47D, and CAMA-1 cells were plated, the compound was administered alone. For the compound of Formula (A): 20 nL of the compound prepared in step 2.3 a) + 20 nL of DMSO were added. For compound fulvestrant: 20 nL of the compound prepared in step 2.3 c) + 20 nL of DMSO were added.
24 Hours after T47D cells were plated, the compound of Formula (A) was administered in combination with fulvestrant: 20 nL of the compound prepared in step 2.3 a) + 20 nL of the compounds prepared in step 2.3 c), e), and g). […]

[1] = Plasma pharmacokinetics in the xenograft mice on day 28 of treatment; assay type: in vivo, female BALB/c nude mice; settings: for AUC(0-inf) / AUC(0-t) / Cmax / Tmax / half-life / MRT inf: female, BALB/c nude; for MRT inf: read-out: MRTInf_obs
Text: The purpose of this study was to evaluate the therapeutic efficacy of the compound of Formula (A) in combination with fulvestrant in the MCF-7 human breast cancer subcutaneous xenograft model in female BALB/c nude mice.
On the 28th day of treatment for the mice in Experiment 2, animal plasma was continuously collected for PK detection, with a total of 112 plasma samples and 16 tumor samples. PK sample sampling protocol

[2] = po, analyte: the compound of Formula (A) in plasma, 25 mg/kg p.o. alone (G2) or + Fulvestrant 5 mg/mouse (G4)
[3] = sc, analyte: fulvestrant in plasma, 5 mg/mouse s.c. alone (G3) or + the compound of Formula (A) 25 mg/kg (G4)

AUC%Extrap_obs ([1]; analyte: fulvestrant in plasma, 5 mg/mouse s.c. alone (G3) or + the compound of Formula (A) 25 mg/kg (G4))	AUC(0-inf) [1, 3]	AUC(0-t) [1, 3]	Cmax [1, 3]	Tmax [1, 3]	half-life [1, 3]	MRT inf [1, 3]	Structure (SMILES)	IC50 (BT-474 Cells)	Maximum Inhibition Rate on BT-474 Cells (BT-474 Cells)	IC50 (ZR-75-1 Cells)	Maximum Inhibition Rate on ZR-75-1 Cells (ZR-75-1 Cells)	IC50 (T47D Cells)	Maximum Inhibition Rate on T47D Cells (T47D Cells)	AUC%Extrap_obs ([1]; analyte: the compound of Formula (A) in plasma, 25 mg/kg p.o. alone (G2) or + Fulvestrant 5 mg/mouse (G4))	AUC(0-inf) [1, 2]	AUC(0-t) [1, 2]	Cmax [1, 2]	Tmax [1, 2]	half-life [1, 2]	MRT inf [1, 2]
–	–	–	–	–	–	–	CC(C)NC[C@@H](C(=O)N1CCN(c2ncnc3c2[C@H](C)CC(=O)N3)[C@H]2C[C@H]21)c1ccc(Cl)cc1 [The compound of Formula (A), (R)-4-((1S,6R)-5-((S)-2-(4-chlorophenyl)-3-(isopropylamino)propanoyl)-2,5-diazabicyclo[4.1.0]heptan-2-yl)-5-methyl-5,8-dihydropyrido[2,3-d]pyrimidin-7(6H)-one]	668 nM	84.62%	2170 nM	92.45%	358 nM	91.47%	1.48%	18800 ng·h/mL	18500 ng·h/mL	1340 ng/mL	2.75 h	7.93 h	10.5 h
12.6%	6610 ng·h/mL	5780 ng·h/mL	268 ng/mL	0.375 h	23.6 h	37.7 h	C[C@]12CC[C@@H]3c4ccc(O)cc4C[C@@H](CCCCCCCCC[S+]([O-])CCCC(F)(F)C(F)(F)F)[C@H]3[C@@H]1CC[C@@H]2O (some centres unmarked) [Fulvestrant, reference compound]	> 1000 nM	43.33%	> 1000 nM	43.96%	0.09 nM	62.71%	–	–	–	–	–	–	–
